Measurements reported in US20160272953A1, “Activated Sugars” (ZuChem, Inc., priority 2010, published 2016).

Tests used:
E. coli GalKMLYH = molecular target: T1, E. coli GalKMLYH (Escherichia coli, UniProt P0A6T3, D325E/M173L/Y371H); assay: GalKMLYH conversion of L-sugars at 16° C.; assay type: biochemical; settings: 5 hrs of incubation, partially purified cell extract
T1 construct: made in house; host or cells: E. coli
Experimental: The GalKMLYH enzyme was finally tested at 16° C. for the conversion of several other L-sugars using partially purified cell extract from the overexpressing E. coli strain and typical reaction conditions.

EP-P2 [1] = assay: Nucleotidylyltransferase substrate specificity by TLC, EP-P2; assay type: biochemical, P. furiousus; settings: 90° C., 6 mM substrate
Text: (§1) A fourth nucleotidlylytransferaseenzyme has been cloned from P. furiousus (EP-P2) that has previously been shown capable of converting the only commercially available L-sugar-1-phosphate (L-fucose-1-P),[47] transferring 82% to produce UDP-L-Fucose as determined by ESI-MS. EP-P2 additionally has a broad activity range on 6 other D-sugar-1-phosphates. This enzyme was cloned as a His-tag fusion and purified by IMAC. Since we had 4 different enzymes (EP-S, EP-T, EP-P, and EP-P2) with different characteristics and substrate specificities, experiments were designed to test the substrate specificities on purified nucleotidlylytransferase enzyme and pure substrates. Reactions with each of the 4 nucleotidlylytransferase enzymes were set up using 4 different sugar-1-phosphates and 2 different nucleotides (32 reactions total), with each enzyme incubated near its optimal temperature. In a total volume of 200 μL the reactions contained 25 μL of purified enzyme, 5 mM MgCl2, 6 mM nucleotide, 6 mM sugar-1-phosphate, 4 U thermophilic pyrophosphatase (commercially available). The 4 sugar-1-phosphates were D-glucose-1-phosphate, L-glucose-1-phosphate, D-galactose-1-phosphate, and D-mannose-1-phosphate, while the 2 nucleotides chosen were dTTP and UTP. EP-P and EP-P2 were incubated at 90° C., EP-T at 65° C., and EP-S at 45° C. Samples were taken at the time of enzyme addition and every hour for three hours and then analyzed by TLC using 80% aqueous acetonitrile +10 mM TBAHS; visualized by UV and stained in KMnO4.
The UV visible spots were circled in black for FIG. 6-3 to aid in visualization as only the nucleotides and nucleotide-activated sugars are UV active. The upper left plates show TLC of standard compounds. […] To our knowledge these are the first examples of commercially viable dTDP-L-glucose enzymatic production. […] EP-S had good activity on both D-glu-1P and D-mann-1P. EP-P and EP-T both were only active on D-glucose-1P with UTP as the nucleotide. […] Furthermore, many of the reactions proceeded to completion by the first time point analyzed.

EP-P = assay: Nucleotidylyltransferase substrate specificity by TLC, EP-P; assay type: biochemical, Pyrococcus furiosus; settings: UTP, 90° C., 6 mM substrate
Text: as §1, with “In a total volume of 200 μL the reactions contained 25 μL of purified enzyme, 5 mM MgCl2, 6 mM nucleotide, 6 mM sugar-1-phosphate, 4 U thermophilic pyrophosphatase (commercially available). The 4 sugar-1-phosphates were D-glucose-1-phosphate, L-glucose-1-phosphate, D-galactose-1-phosphate, and D-mannose-1-phosphate, while the 2 nucleotides chosen were dTTP and UTP. EP-P and EP-P2 were incubated at 90° C., EP-T at 65° C., and EP-S at 45° C.” left out
(§2) The UV visible spots were circled in black for FIG. 6-3 to aid in visualization as only the nucleotides and nucleotide-activated sugars are UV active. […] Furthermore, many of the reactions proceeded to completion by the first time point analyzed.

EP-T = assay: Nucleotidylyltransferase substrate specificity by TLC, EP-T; assay type: biochemical, Thermus thermophilus; settings: 65° C., 6 mM substrate
Text: as §1, with “In a total volume of 200 μL the reactions contained 25 μL of purified enzyme, 5 mM MgCl2, 6 mM nucleotide, 6 mM sugar-1-phosphate, 4 U thermophilic pyrophosphatase (commercially available). The 4 sugar-1-phosphates were D-glucose-1-phosphate, L-glucose-1-phosphate, D-galactose-1-phosphate, and D-mannose-1-phosphate, while the 2 nucleotides chosen were dTTP and UTP. EP-P and EP-P2 were incubated at 90° C., EP-T at 65° C., and EP-S at 45° C.” left out
as §2

EP-S = assay: Nucleotidylyltransferase substrate specificity by TLC, EP-S; assay type: biochemical, Streptococcus thermophilus; settings: UTP, 45° C., 6 mM substrate
Text: as §1, with “In a total volume of 200 μL the reactions contained 25 μL of purified enzyme, 5 mM MgCl2, 6 mM nucleotide, 6 mM sugar-1-phosphate, 4 U thermophilic pyrophosphatase (commercially available). The 4 sugar-1-phosphates were D-glucose-1-phosphate, L-glucose-1-phosphate, D-galactose-1-phosphate, and D-mannose-1-phosphate, while the 2 nucleotides chosen were dTTP and UTP. EP-P and EP-P2 were incubated at 90° C., EP-T at 65° C., and EP-S at 45° C.” left out
as §2

[2] = molecular target: T2, wild-type P. furiosus enzyme (Pyrococcus furiosus, UniProt Q9HHB6); assay: GalK activity by ATP to ADP conversion (HPLC), wild-type enzyme; assay type: biochemical; settings: 200 mM sugar, 100 mM ATP, 1 ug/ml enzyme, 60° C., 20 hours
T2 construct: 6-His (N); made in house; host or cells: E. coli
T2 sequence (Q9HHB6 whole entry): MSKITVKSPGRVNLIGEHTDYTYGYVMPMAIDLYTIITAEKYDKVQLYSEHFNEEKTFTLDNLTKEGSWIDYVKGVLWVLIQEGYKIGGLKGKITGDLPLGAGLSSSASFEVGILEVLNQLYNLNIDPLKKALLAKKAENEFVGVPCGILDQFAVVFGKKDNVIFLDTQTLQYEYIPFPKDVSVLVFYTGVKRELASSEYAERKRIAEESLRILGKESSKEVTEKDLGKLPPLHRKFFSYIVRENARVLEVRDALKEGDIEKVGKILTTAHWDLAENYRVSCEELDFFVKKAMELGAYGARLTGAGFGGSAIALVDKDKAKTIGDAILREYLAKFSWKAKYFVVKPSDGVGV
Experimental: The reaction of sugars with the wild type and mutant sugar-1-kinse such as those from Pyrococcus furiousus can also be monitored by following ATP consumption in the reaction. The amount of ATP consumption directly correlates with the amount of sugar-1-kinase produced. For example, to produce additional sugar-1-phosphates a series of experiments were carried out as follows, In a reaction mix containing 50 mM sodium phosphate buffer at pH 7.5, 100 mM ATP, 200 mM of the sugar being tested, 5mM MgC12 either 1 ug/ml of either the PK27 mutant or wild-type P. furiosus enzyme were added. The reaction was incubated at 60° C. for 20 hours. ATP and ADP concentrations were analyzed by HPLC using a Supelcosil LC-18-T column with a flow rate of 1.0 mL/min of 0.05 M. KH2P04/4 mM tetrabutylammonium hydrogen sulfate and a linear gradient solvent program of 0-30% methanol over 30 min. The percent conversion of ATP to ADP was calculated. Sugar-1-phosphate was analyzed by HPLC using Supelcosil LC-SAX column 0.05 M K-phosphate buffer, pH 6.0
GalK activity by ATp to ADp conversion, 20 h. Percentages indicate degree reaction proceeded to completion within 20 hours.

[3] = tested on: Sugar-1-kinase-P and nucleotidyltransferase-S; assay: One-pot coupled sugar-1-kinase / nucleotidyltransferase reaction (TLC); assay type: biochemical; settings: for conversion to dTDP-sugar, estimated by TLC: dTTP 8 mM as nucleotide donor
Experimental: (§3) Initial coupling of the reaction was tested for 1-pot synthesis of NDP-sugars. The reaction was started with 12 mM ATP, 3.5 mM MgCl2, and 8 mM of either L-Glucose or D-galactose. Partially purified Sugar-1-kinase-P was added to the mixture and a sample was taken at 0 and 60 minutes. After 60 minutes, dTTP or UTP (8 mM), 20 μL nucleotidyltransferase-S, and 2 μL of commercially available thermostable pyrophosphatase were added to the reaction and samples were taken at different time points and analyzed by TLC as shown in FIG. 7-1. […] Upon addition of the second enzyme and nucleotide, the formation of dTDP-D-galactose and dTDP-L-glucose began. The sugar nucleotides were more clearly visualized by UV, but can also been seen in the KMnO4 stained TLC plates in FIG. 6-1.
The conversion is estimated to be greater than 80% based on the loss of Gal-1-P and appearance of dTDP-Gal on TLC. The reaction with L-glucose and dTTP was also successful, however, the conversion was lower and estimated to be 20% by TLC.

Sugar-1-kinase-P = assay: One-pot reaction, first step: phosphorylation by Sugar-1-kinase-P (DNS assay, TLC); assay type: biochemical, Pyrococcus furiosus; settings: 8 mM sugar, 12 mM ATP, first 60 minutes
Experimental: as §3

[4] = molecular target: engineered E. coli GalKMLYH (Escherichia coli, UniProt P0A6T3, D325E/M173L/Y371H); settings: substrate 1.5 g/L, purified enzyme 0.6 g/L; cited from earlier work
Sugar-1-kinase-S = assay: Time course conversion of alternative substrates by Sugar-1-kinase-S; assay type: biochemical, Streptococcus thermophilus; settings: 45° C., ~300 minutes, partially purified cell extract
WT Sugar-1-kinase-P = molecular target: T3, WT Sugar-1-kinase-P (Pyrococcus furiosus, UniProt Q9HHB6); assay: Substrate specificity of purified WT Sugar-1-kinase-P (DNS assay); assay type: biochemical; settings: 8 mM sugar, 2.4 mg/ml enzyme, 12 mM ATP, 5 mM MgCl2, pH 7.5 phosphate buffer
T3 construct: 6-His (N); made in house; host or cells: E. coli
T3 sequence (Q9HHB6 whole entry): as above
Experimental: Often, when applying protein engineering to activity on a new substrate the resulting enzyme has relaxed substrate specificity which we wanted to achieve. The purified Sugar-1-kinase-PK27 was then tested for the conversion of a variety of sugars and compared to purified WT Sugar-1-kinase-P. The reactions were setup with 8 mM of different sugars (L-ribose, L-galactose, L-glucose, L-arabinose, L-xylose, L-rhamnose, L-mannose, L-gulose, L-fucose, and 6-Azido-D-galactose), 2.4 mg/ml enzyme, 12 mM ATP, and 5 mM MgCl2 in pH 7.5 phosphate buffer. Samples were taken every hour and analyzed by DNS assay (FIG. 4-5A).

EP-P2 [5] = settings: determined by ESI-MS; cited from earlier work
nucleotidyltransferase-S = assay: Nucleotidyltransferase-S activity with Gal-1-P and dTTP (TLC and malachite green); assay type: biochemical, Streptococcus thermophilus; settings: 7 mM Gal-1-P, 7 mM dTTP, 0.1 U pyrophosphatase
Experimental: The nucleotidyltransferase-S enzyme was chosen for further study due to its high expression in E. coli. Nucleotidyltransferase activity was measured with the commercially available substrate D-galactose-1-phosphate (Gal-1-P). This is not the natural substrate of homologous nucleotidyltransferases, which is D-glucose-1-phosphate. Nucleotidyltransferase-S was incubated with 7 mM Gal-1-P, 7 mM dTTP, and 0.1 U of pyrophosphatase. The reaction was monitored by two different methods. […] The second method of assay was a malachite green based inorganic phosphate assay. When dTTP is coupled to a Sugar-1-phosphate it releases pyrophosphate which is broken down to pyrophosphatase to 2 molecules of inorganic phosphate.

Compound: C[C@H](O)[C@H](O)[C@@H](O)[C@@H](O)C=O [L-rhamnose]
- activity of GalK mutant on substrate (E. coli GalKMLYH): did not display significant activity

Compound: O=P(O)(O)O[C@H]1O[C@H](CO)[C@@H](O)[C@H](O)[C@H]1O [D-glu-1P, D-glucose-1-phosphate]
- activity on sugar-1-phosphate (EP-P2 [1]; dTTP): showed activity
- activity on sugar-1-phosphate (EP-P): only active
- activity on sugar-1-phosphate (EP-T; UTP): only active
- activity on sugar-1-phosphate (EP-T; dTTP): converted
- activity on sugar-1-phosphate (EP-S): good activity

Compound: O=P(O)(O)OC1OC(CO)C(O)C(O)C1O [L-glu-1P, L-glucose-1-phosphate]
- activity on sugar-1-phosphate (EP-P2 [1]; UTP): did not appear to appreciably convert
- activity on sugar-1-phosphate (EP-P2 [1]; dTTP): showed activity

Compound: C[C@@H](O)[C@H](O)[C@H](O)[C@@H](O)C=O [D-fucose]
- degree reaction proceeded to completion (ATP to ADP conversion), WT Pyrococcus furiosus [2]: 78%

Compound: O=c1ccn([C@@H]2O[C@H](COP(=O)(O)OP(=O)(O)OP(=O)(O)O)[C@@H](O)[C@H]2O)c(=O)[nH]1 [UTP]
- outcome as alternative nucleotide donor ([3]; 8 mM, one-pot coupled reaction): did not result in a successfully coupled reaction

Compound: O=C[C@H](O)[C@@H](O)[C@@H](O)[C@H](O)CO [D-Galactose]
- conversion to dTDP-sugar, estimated by TLC [3]: greater than 80%
- conversion to sugar-1-phosphate (Sugar-1-kinase-P): completely converted
- degree reaction proceeded to completion (ATP to ADP conversion), WT Pyrococcus furiosus [2]: 90%

Compound: O=P(O)(O)O[C@H]1O[C@H](CO)[C@@H](O)[C@H](O)[C@@H]1O [D-mannose-1P, D-mannose-1-phosphate]
- activity on sugar-1-phosphate (EP-P2 [1]; dTTP): showed activity
- activity on sugar-1-phosphate (EP-S): good activity

Compound: O=C[C@@H](O)[C@H](O)[C@@H](O)[C@@H](O)CO [L-glucose]
- conversion to 1-phosphate [4]: 25%
- activity of GalK mutant on substrate (E. coli GalKMLYH): did not display significant activity
- conversion to dTDP-sugar, estimated by TLC [3]: ~20%
- reaction completion (Sugar-1-kinase-S): 95-100%
- conversion to sugar-1-phosphate (Sugar-1-kinase-P): completely converted
- activity on sugar (WT Sugar-1-kinase-P): displayed activity

Compound: O=C[C@@H](O)[C@@H](O)[C@H](O)[C@H](O)CO [D-mannose]
- degree reaction proceeded to completion (ATP to ADP conversion), WT Pyrococcus furiosus [2]: 54%

Compound: O=C[C@H](O)[C@H](O)[C@@H](O)[C@@H](O)CO [L-mannose]
- activity of GalK mutant on substrate (E. coli GalKMLYH): did not display significant activity

Compound: C[C@@H]1O[C@H](OP(=O)(O)O)[C@@H](O)[C@H](O)[C@@H]1O [L-fucose-1-P]
- transfer to UDP-L-Fucose (EP-P2 [5]): 82%

Compound: O=C[C@@H](O)[C@H](O)[C@@H](O)CO [L-xylose]
- activity of GalK mutant on substrate (E. coli GalKMLYH): did not display significant activity

Compound: O=C[C@@H](O)[C@@H](O)[C@H](O)[C@@H](O)CO [L-gulose]
- activity of GalK mutant on substrate (E. coli GalKMLYH): did not display significant activity

Compound: O=P(O)(O)O[C@H]1O[C@H](CO)[C@H](O)[C@H](O)[C@H]1O [D-galactose-1-phosphate]
- activity with substrate (nucleotidyltransferase-S): active

Compound: O=C[C@H](O)[C@@H](O)[C@@H](O)CO [L-arabinose]
- activity of GalK mutant on substrate (E. coli GalKMLYH): did not display significant activity

Compound: O=C[C@H](O)[C@@H](O)[C@H](O)CO [D-xylose]
- degree reaction proceeded to completion (ATP to ADP conversion), WT Pyrococcus furiosus [2]: 50%

Compound: C[C@H](O)[C@@H](O)[C@@H](O)[C@H](O)C=O [L-fucose]
- activity of GalK mutant on substrate (E. coli GalKMLYH): did not display significant activity
- degree reaction proceeded to completion (ATP to ADP conversion), WT Pyrococcus furiosus [2]: 40%

Compound: O=C[C@@H](O)[C@@H](O)[C@@H](O)CO [L-ribose]
- activity of GalK mutant on substrate (E. coli GalKMLYH): did not display significant activity
